Drawing on patent publication US10544143B2, “4-azaindole compounds” (BRISTOL-MYERS SQUIBB COMPANY, priority 2017, dated 2020), this text covers IC50 for 29 molecules.

Bounds are passed on as bounds.

One assay concerns the target human TLR7 (Homo sapiens (Human), UniProt Q9NYK1). Put plainly: TLR7 inhibition reporter assay (HEK-Blue SEAP). The following applies: HEK-Blue human TLR7 cells, gardiquimod 7.5 μM. Type of assay: cell-based.
Another assay addresses human TLR9 (Homo sapiens (Human), UniProt Q9NR96). The assay is described as follows: TLR9 inhibition reporter assay (HEK-Blue SEAP).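 Note: SEAP driven by an IFN-β minimal promoter with NF-κB and AP-1 sites, read after 22 h, compounds dosed 0.05 nM–50 µM, inhibition scaled between agonist plus DMSO and reference-inhibitor wells.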 The following applies: read-out: TLR9 IC50; HEK-Blue human TLR9 cells, ODN2006 5 nM.
In a further assay the target is human TLR8 (Homo sapiens (Human), UniProt Q9NR97). Put plainly: TLR8 inhibition reporter assay (HEK-Blue SEAP).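 Note: SEAP driven by IFN-β minimal promoter carrying NF-κB and AP-1 sites, compounds dosed 0.05 nM to 50 µM for 22 h, inhibition scaled between agonist-plus-DMSO and reference-inhibitor wells.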 The following applies: read-out: TLR8 IC50; HEK-Blue human TLR8 cells, R848 15.9 μM.
human TLR8, sequence (Q9NR97 27-1041): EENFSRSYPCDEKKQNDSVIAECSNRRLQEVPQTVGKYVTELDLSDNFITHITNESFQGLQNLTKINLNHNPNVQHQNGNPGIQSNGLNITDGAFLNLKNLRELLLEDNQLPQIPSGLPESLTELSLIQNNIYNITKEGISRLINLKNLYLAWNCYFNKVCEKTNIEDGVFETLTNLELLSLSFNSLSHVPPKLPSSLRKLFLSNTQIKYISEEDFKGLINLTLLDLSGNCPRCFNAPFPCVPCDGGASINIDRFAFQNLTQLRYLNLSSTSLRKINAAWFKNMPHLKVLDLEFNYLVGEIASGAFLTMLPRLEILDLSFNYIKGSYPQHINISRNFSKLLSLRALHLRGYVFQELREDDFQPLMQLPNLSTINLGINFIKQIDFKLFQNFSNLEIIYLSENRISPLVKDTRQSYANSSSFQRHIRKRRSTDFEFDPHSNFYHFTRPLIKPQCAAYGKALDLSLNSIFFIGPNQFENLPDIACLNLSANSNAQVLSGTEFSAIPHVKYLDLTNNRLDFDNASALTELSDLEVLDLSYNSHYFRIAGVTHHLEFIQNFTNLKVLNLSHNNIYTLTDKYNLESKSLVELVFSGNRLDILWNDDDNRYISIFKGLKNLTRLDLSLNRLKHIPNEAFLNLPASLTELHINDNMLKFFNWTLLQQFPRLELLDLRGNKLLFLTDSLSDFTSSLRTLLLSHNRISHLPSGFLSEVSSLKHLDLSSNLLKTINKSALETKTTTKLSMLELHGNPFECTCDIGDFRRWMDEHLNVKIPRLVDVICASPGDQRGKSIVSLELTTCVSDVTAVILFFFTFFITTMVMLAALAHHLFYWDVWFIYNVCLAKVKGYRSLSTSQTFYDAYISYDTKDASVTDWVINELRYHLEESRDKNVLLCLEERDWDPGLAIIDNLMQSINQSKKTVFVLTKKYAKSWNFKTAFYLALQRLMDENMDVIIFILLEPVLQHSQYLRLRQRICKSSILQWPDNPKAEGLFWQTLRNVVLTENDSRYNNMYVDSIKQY

human TLR7, sequence (Q9NYK1 27-1049): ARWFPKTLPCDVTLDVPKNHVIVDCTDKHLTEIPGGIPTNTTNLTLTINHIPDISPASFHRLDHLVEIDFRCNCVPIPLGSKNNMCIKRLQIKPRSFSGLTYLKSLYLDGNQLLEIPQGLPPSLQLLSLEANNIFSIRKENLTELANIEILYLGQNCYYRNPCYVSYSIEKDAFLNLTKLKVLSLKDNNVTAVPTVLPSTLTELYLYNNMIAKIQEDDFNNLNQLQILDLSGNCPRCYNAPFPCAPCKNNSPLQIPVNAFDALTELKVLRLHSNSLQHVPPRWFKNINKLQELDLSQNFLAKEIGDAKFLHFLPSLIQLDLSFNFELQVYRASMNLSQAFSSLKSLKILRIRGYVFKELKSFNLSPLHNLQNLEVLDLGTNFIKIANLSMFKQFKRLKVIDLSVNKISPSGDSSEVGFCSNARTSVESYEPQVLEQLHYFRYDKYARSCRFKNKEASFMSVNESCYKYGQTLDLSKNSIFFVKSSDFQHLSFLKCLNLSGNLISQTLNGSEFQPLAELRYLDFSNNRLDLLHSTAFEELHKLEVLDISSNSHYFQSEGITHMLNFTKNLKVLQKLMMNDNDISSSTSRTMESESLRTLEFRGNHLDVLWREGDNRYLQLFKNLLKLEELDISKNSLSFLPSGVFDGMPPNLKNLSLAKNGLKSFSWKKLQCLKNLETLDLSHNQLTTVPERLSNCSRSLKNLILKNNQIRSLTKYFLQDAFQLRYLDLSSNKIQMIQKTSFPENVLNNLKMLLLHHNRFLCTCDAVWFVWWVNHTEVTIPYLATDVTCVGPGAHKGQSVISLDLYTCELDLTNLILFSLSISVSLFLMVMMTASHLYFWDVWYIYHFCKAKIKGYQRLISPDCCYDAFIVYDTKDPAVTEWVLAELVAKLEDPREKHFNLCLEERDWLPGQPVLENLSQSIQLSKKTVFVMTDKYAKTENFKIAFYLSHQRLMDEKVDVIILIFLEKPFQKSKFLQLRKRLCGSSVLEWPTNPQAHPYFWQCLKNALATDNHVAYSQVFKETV
human TLR9, sequence (Q9NR96 26-1032): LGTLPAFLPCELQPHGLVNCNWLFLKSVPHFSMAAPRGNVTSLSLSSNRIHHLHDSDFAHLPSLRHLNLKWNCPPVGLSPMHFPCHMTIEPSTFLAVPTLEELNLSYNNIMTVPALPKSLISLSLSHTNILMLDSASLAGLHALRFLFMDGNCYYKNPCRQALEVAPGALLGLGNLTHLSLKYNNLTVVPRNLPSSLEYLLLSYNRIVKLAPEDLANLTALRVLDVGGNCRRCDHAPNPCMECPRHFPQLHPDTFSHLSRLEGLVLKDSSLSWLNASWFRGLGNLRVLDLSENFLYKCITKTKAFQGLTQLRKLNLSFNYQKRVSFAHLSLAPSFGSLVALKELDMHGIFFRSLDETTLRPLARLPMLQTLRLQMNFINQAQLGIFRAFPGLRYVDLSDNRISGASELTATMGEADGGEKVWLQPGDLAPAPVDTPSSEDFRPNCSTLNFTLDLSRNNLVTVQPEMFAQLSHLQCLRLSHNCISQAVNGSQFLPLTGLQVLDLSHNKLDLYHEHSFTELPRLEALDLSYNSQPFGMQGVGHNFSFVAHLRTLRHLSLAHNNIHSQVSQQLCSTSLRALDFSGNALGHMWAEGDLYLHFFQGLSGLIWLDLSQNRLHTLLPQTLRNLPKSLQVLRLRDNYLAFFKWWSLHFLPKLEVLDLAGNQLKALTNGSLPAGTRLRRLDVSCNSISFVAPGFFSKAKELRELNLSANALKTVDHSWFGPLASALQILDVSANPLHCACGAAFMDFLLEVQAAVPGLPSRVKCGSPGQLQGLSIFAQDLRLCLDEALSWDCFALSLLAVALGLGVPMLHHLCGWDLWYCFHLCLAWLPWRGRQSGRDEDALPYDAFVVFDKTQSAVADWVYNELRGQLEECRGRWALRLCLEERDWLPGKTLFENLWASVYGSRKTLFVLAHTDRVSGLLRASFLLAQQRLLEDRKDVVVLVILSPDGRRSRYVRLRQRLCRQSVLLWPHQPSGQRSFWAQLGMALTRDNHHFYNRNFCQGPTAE
Experimental for human TLR7: HEK-Blue™-cells (Invivogen) overexpressing human TLR7, TLR8 or TLR9 receptors were used for screening inhibitors of these receptors using an inducible SEAP (secreted embryonic alkaline phosphatase) reporter gene under the control of the IFN-β minimal promoter fused to five NF-κB and AP-1-binding sites. Briefly, cells are seeded into Greiner 384 well plates (15000 cells per well for TLR7, 20,000 for TLR8 and 25,000 for TLR9) and then treated with test compounds in DMSO to yield a final dose response concentration range of 0.05 nM-50 μM. After a 30 minute compound pre-treatment at room temperature, the cells are then stimulated with a TLR7 ligand (gardiquimod at a final concentration of 7.5 μM), TLR8 ligand (R848 at a final concentration of 15.9 μM) or TLR9 ligand (ODN2006 at a final concentration of 5 nM) to activate NF-κB and AP-1 which induce the production of SEAP. After a 22 hour incubation at 37° C., 5% CO2, SEAP levels are determined with the addition of HEK-Blue™ Detection reagent (Invivogen), a cell culture medium that allows for detection of SEAP, according to manufacturer's specifications.

Turning to `Cc1c(-c2[nH]c3ccc(N4CCN(C(=O)CN(C(C)C)C(C)C)C[C@@H]4C)nc3c2C(C)C)cn2ncnc2c1C` [Example 903], the IC50 is 3 nM against human TLR7, 35200 nM on human TLR9 and 4.1 nM at human TLR8.

For `Cc1c(-c2[nH]c3ccc(N4CCN(C(=O)CN(C)C(C)(C)C)[C@@H](C)C4)nc3c2C(C)C)cn2ncnc2c1C` [Example 904], the IC50 on human TLR7 was 1 nM; at human TLR9, 14800 nM; at human TLR8, 4.2 nM.

Turning to `Cc1c(-c2[nH]c3ccc(N4CCN(C(=O)CN(C)C(C)(C)C)C[C@@H]4C)nc3c2C(C)C)cn2ncnc2c1C` [Example 905], the values for the IC50 against human TLR7, on human TLR9 and on human TLR8 were 0.51 nM, 12000 nM and 0.82 nM, respectively.

Turning to `CCN(C)CCC(=O)N1C[C@H](C)N(c2ccc3[nH]c(-c4cn5ncnc5c(C)c4C)c(C(C)C)c3n2)C[C@H]1C` [Example 906], the IC50 against human TLR7 was found to be 0.39 nM; at human TLR9 it was 7800 nM; on human TLR8 it was 0.67 nM.

For `Cc1c(-c2[nH]c3ccc(N4C[C@@H](C)N(C(=O)CCN5CCOCC5)C[C@@H]4C)nc3c2C(C)C)cn2ncnc2c1C` [Example 907], the 50% inhibitory concentration (IC50) against human TLR7 is 0.76 nM; on human TLR9, over 50000 nM; at human TLR8, 0.45 nM.

`Cc1c(-c2[nH]c3ccc(N4C[C@@H](C)N(C(=O)CCN5CC6(COC6)C5)C[C@@H]4C)nc3c2C(C)C)cn2ncnc2c1C` [Example 908]: the IC50 on human TLR7 came out at 0.89 nM; on human TLR9, 6460 nM; on human TLR8 it was 0.26 nM.

In the case of `Cc1c(-c2[nH]c3ccc(N4C[C@@H](C)N(C(=O)CCN5CCC(F)C5)C[C@@H]4C)nc3c2C(C)C)cn2ncnc2c1C` (stereo partly drawn) [Example 909], the IC50 stood at 0.54 nM against human TLR7, 6710 nM at human TLR9 and 0.91 nM on human TLR8.

`Cc1c(-c2[nH]c3ccc(N4C[C@@H](C)N(C(=O)CN(C(C)C)C(C)C)C[C@@H]4C)nc3c2C(C)C)cn2ncnc2c1C` [Example 910]: the IC50 against human TLR7 was 0.68 nM; at human TLR9, 5400 nM; on human TLR8, 0.86 nM.

Consider `Cc1c(-c2[nH]c3ccc(N4C[C@@H](C)N(C(=O)CN(C)C(C)(C)C)C[C@@H]4C)nc3c2C(C)C)cn2ncnc2c1C` [Example 911], for which the IC50 on human TLR7 stood at 0.68 nM; on human TLR9, 7020 nM; at human TLR8, 1.5 nM.

Consider `CCN(CC(=O)N1C[C@H](C)N(c2ccc3[nH]c(-c4cn5ncnc5c(C)c4C)c(C(C)C)c3n2)C[C@H]1C)C(C)C` [Example 912], for which the figures for the IC50 at human TLR7, at human TLR9 and at human TLR8 were 0.98 nM, 9330 nM and 2.2 nM, respectively.

Consider `Cc1c(-c2[nH]c3ccc(N4[C@@H]5CC[C@H]4CN(C(=O)CCN(C)C)C5)nc3c2C(C)C)cn2ncnc2c1C` [Example 913], for which the IC50 on human TLR7 turned out to be 1 nM; on human TLR9, 8840 nM; at human TLR8, 1.8 nM.

For `Cc1c(-c2[nH]c3ccc(N4C[C@@H](C)N(C(=O)CCN(C)C(C)(C)C)C[C@@H]4C)nc3c2C(C)C)cn2ncnc2c1C` [Example 914], the IC50 on human TLR7 turned out to be 0.73 nM; on human TLR9 it was 6050 nM; at human TLR8, 0.94 nM.

As to `Cc1c(-c2[nH]c3ccc(N4CCN(C(=O)CN5CC(C)(C)C5)CC4)nc3c2C(C)C)cn2ncnc2c1C` [Example 915], the results for the IC50 against human TLR7, on human TLR9 and on human TLR8 were 2.3 nM, 11100 nM and 1 nM, respectively.

`COC1CN(CC(=O)N2CCN(c3ccc4[nH]c(-c5cn6ncnc6c(C)c5C)c(C(C)C)c4n3)CC2)C1` [Example 916]: the IC50 at human TLR7 came out at […]; at human TLR9, 14500 nM; on human TLR8, 11 nM.

In the case of `Cc1c(-c2[nH]c3ccc(N4CCN(C(=O)CN5CCC(F)(F)C5)CC4)nc3c2C(C)C)cn2ncnc2c1C` [Example 919], the values for the IC50 against human TLR7, at human TLR9 and on human TLR8 were 23 nM, 13900 nM and 1 nM, respectively.

For the molecule `Cc1c(-c2[nH]c3ccc(N4[C@@H]5CC[C@H]4CN(C(=O)CN4CC6(COC6)C4)C5)nc3c2C(C)C)cn2ncnc2c1C` [Example 920], the IC50 at human TLR7 was 2.6 nM; at human TLR9, 12100 nM; on human TLR8 it was 5.9 nM.

`Cc1c(-c2[nH]c3ccc(N4[C@@H]5CC[C@H]4CN(C(=O)CN4CCCC4)C5)nc3c2C(C)C)cn2ncnc2c1C` [Example 921]: the IC50 at human TLR7 was found to be 0.61 nM; on human TLR9, 5270 nM; on human TLR8, 3.4 nM.

Take `CCN(C)CC(=O)N1C[C@H]2CC[C@@H](C1)N2c1ccc2[nH]c(-c3cn4ncnc4c(C)c3C)c(C(C)C)c2n1` [Example 922]: the IC50 against human TLR7 worked out at 0.55 nM; at human TLR9, 9370 nM; on human TLR8, 2.1 nM.

On to `Cc1c(-c2[nH]c3ccc(N4[C@@H]5CC[C@H]4CN(C(=O)CN(C)C(C)C)C5)nc3c2C(C)C)cn2ncnc2c1C` [Example 923], for which the values for the IC50 on human TLR7, on human TLR9 and at human TLR8 were 1.2 nM, 6560 nM and 3.6 nM, respectively.

As for `Cc1c(-c2[nH]c3ccc(N4[C@@H]5CC[C@H]4CN(C(=O)CN(C)C(C)(C)C)C5)nc3c2C(C)C)cn2ncnc2c1C` [Example 924], the IC50 came out at 1.7 nM against human TLR7, 7230 nM on human TLR9 and 4.9 nM at human TLR8.

On to `Cc1c(-c2[nH]c3ccc(N4[C@@H]5CC[C@H]4CN(C(=O)CN(CCO)C(C)(C)C)C5)nc3c2C(C)C)cn2ncnc2c1C` [Example 925], for which the IC50 was 0.79 nM against human TLR7, 10100 nM on human TLR9 and 9.2 nM on human TLR8.

Consider `Cc1c(-c2[nH]c3ccc(N4C[C@@H](C)N(C(=O)CN(C)C(C)(C)C)[C@H](C)C4)nc3c2C(C)C)cn2ncnc2c1C` [Example 926], for which the figures for the half-inhibitory concentration (IC50) against human TLR7, on human TLR9 and at human TLR8 were 3.3 nM, 3040 nM and 3 nM, respectively.

On to `CCN(C)CC(=O)N1[C@H](C)CN(c2ccc3[nH]c(-c4cn5ncnc5c(C)c4C)c(C(C)C)c3n2)C[C@H]1C` [Example 927], for which the values for the IC50 at human TLR7, on human TLR9 and on human TLR8 were 2.9 nM, 4360 nM and 3.7 nM, respectively.

Regarding `Cc1c(-c2[nH]c3ccc(N4C[C@@H](C)N(C(=O)CN5CCCC5)[C@H](C)C4)nc3c2C(C)C)cn2ncnc2c1C` [Example 928], the IC50 against human TLR7 was found to be 1.5 nM; on human TLR9 it was 3640 nM; on human TLR8, 6.9 nM.

As to `Cc1c(-c2[nH]c3ccc(N4C[C@@H](C)N(C(=O)CN5CC6(COC6)C5)[C@H](C)C4)nc3c2C(C)C)cn2ncnc2c1C` [Example 929], the IC50 against human TLR7 is 2.6 nM; at human TLR9, 5090 nM; on human TLR8 it was 3.9 nM.

Consider `Cc1c(-c2[nH]c3ccc(N4C[C@@H](C)N(C(=O)CN(CCO)C(C)(C)C)[C@H](C)C4)nc3c2C(C)C)cn2ncnc2c1C` [Example 930], for which the values for the concentration for half-maximal inhibition (IC50) on human TLR7, at human TLR9 and on human TLR8 were 22 nM, 24300 nM and 7.4 nM, respectively.

Consider `Cc1c(-c2[nH]c3ccc(N4CCN(C(=O)CN5CC6(COC6)C5)C[C@H]4C)nc3c2C(C)C)cn2ncnc2c1C` [Example 931], for which the IC50 is 2.5 nM against human TLR7, 14900 nM on human TLR9 and 3.9 nM at human TLR8.

`CCN(C)CC(=O)N1CCN(c2ccc3[nH]c(-c4cn5ncnc5c(C)c4C)c(C(C)C)c3n2)[C@@H](C)C1` [Example 932]: the 50% inhibitory concentration (IC50) at human TLR7 was found to be 0.66 nM; on human TLR9 it was 14300 nM; at human TLR8 it was 10 nM.

Turning to `Cc1c(-c2[nH]c3ccc(N4CCN(C(=O)CN(C)C(C)C)C[C@H]4C)nc3c2C(C)C)cn2ncnc2c1C` [Example 933], the results for the IC50 on human TLR7, at human TLR9 and at human TLR8 were 0.63 nM, 18400 nM and 18 nM, respectively.
